56 compounds from PubChem BioAssay AID493132 (Sanford-Burnham Center for Chemical Genomics, 2011) can be followed below.

Active and inactive are the calls of the source.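 How the source made its calls: active means EC50 below 100 µM for activating human gut alkaline phosphatase; inactive means the rest.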

What is called EC50 is the concentration needed to bring the measured effect to its halfway point.

Sequence of Intestinal-type alkaline phosphatase (Homo sapiens) (P09923 whole entry, looked up): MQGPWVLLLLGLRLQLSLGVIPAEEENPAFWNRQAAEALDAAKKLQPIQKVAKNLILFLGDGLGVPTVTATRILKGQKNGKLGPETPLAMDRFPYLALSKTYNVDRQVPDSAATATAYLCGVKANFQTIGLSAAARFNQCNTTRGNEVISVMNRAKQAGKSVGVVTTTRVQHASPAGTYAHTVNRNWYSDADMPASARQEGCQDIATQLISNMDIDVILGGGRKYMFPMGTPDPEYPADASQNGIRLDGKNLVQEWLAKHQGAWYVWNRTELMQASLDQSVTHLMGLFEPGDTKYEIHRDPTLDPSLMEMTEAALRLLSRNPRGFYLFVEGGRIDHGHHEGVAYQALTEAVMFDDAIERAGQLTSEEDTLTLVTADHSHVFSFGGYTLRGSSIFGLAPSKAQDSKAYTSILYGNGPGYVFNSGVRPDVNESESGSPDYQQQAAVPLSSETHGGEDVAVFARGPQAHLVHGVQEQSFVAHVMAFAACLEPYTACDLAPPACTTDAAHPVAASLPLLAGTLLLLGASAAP

The assay has as its target Intestinal-type alkaline phosphatase (Homo sapiens) (UniProt P09923). Briefly: human IAP activators, SAR follow-up, biochemical, luminescence (AID 493132). To be noted: purified IAP, CDP-Star luminescence, 30 min.
On to `O=C(NN=Cc1ccccc1)C(=O)NN=Cc1ccccc1`, for which the EC50 is 30.7 µM.

For the compound `COc1ccc(-c2cc(C(=O)NN=Cc3c(O)ccc4ccccc34)[nH]n2)cc1`, the EC50 was 19.6 µM.

With `O=C(N/N=C\c1ccc2c(c1)OCO2)C(=O)N/N=C/c1ccc2c(c1)OCO2`, the EC50 was > 100 µM (inactive).

In the case of `CC(=O)Nc1ccc(/C=N/NC(=O)C(=O)N/N=C/c2ccc(NC(C)=O)cc2)cc1`, the EC50 is > 100 µM (inactive).

`O=C(N/N=C/c1ccccc1O)c1cc(C2CC2)[nH]n1`: the half-maximal effective concentration (EC50) was 10.2 µM.

On to `COc1cccc(C=NNC(=O)C(=O)NN=Cc2cccc(OC)c2OC)c1OC`, for which the EC50 is 30.4 µM.

Regarding `N#CCOc1ccccc1/C=N/NC(=O)C(=O)N/N=C/c1ccccc1OCC#N`, the concentration for a half-maximal effect (EC50) was 86.5 µM.

Take `O=C(N/N=C/c1c(O)ccc2ccccc12)C(=O)N/N=C/c1c(O)ccc2ccccc12`: the EC50 is > 100 µM (inactive).

Regarding `CN(C)c1ccc(/C=N/NC(=O)C(=O)N/N=C/c2ccc(N(C)C)cc2)cc1`, the EC50 was > 100 µM (inactive).

As for `Cc1cc(C(=O)N/N=C\c2cc(C(C)(C)C)ccc2O)n[nH]1`, the EC50 is 7.65 µM.

On to `COc1cc(/C=N\NC(=O)C(=O)N/N=C/c2cc(OC)c(O)c(OC)c2)cc(OC)c1O`, for which the half-maximal effective concentration (EC50) is 19.2 µM.

On to `O=C(NN=Cc1ccc(O)cc1O)C(=O)NN=Cc1ccc(O)cc1O`, for which the EC50 is 6.5 µM.

For the compound `COc1cc(/C=N/NC(=O)C(=O)N/N=C/c2cc(OC)c(OC)c(OC)c2)cc(OC)c1OC`, the EC50 was > 100 µM (inactive).

With `O=C1Nc2ccc(Br)cc2C12NNc1ccccc1O2` (stereo unspecified), the 50% effective concentration (EC50) was 0.689 µM.

On to `O=C(N/N=C/c1cc(Br)ccc1O)C(=O)N/N=C/c1cc(Br)ccc1O`, for which the EC50 is 11 µM.

For the compound `Cc1ccc(O)c(C=NNC(=O)c2[nH]ncc2Br)c1`, the concentration giving a half-maximal response (EC50) is 18.9 µM.

As to `CCOc1cccc(C=NNC(=O)c2cc(-c3cccn3C)n[nH]2)c1O`, the EC50 is 12.5 µM.

In the case of `COc1ccc(/C=N/NC(=O)C(=O)N/N=C/c2ccc(OC)c(OC)c2)cc1OC`, the EC50 is > 100 µM (inactive).

`CCN(CC)c1ccc(/C=N/NC(=O)C(=O)N/N=C/c2ccc(N(CC)CC)cc2O)c(O)c1`: the EC50 is > 100 µM (inactive).

Take `Cn1cccc1-c1cc(C(=O)NN=Cc2cc(Br)ccc2O)[nH]n1`: the EC50 was 9.91 µM.

Take `O=C(N/N=C/c1ccc2c(c1)OCO2)C(=O)N/N=C/c1ccc2c(c1)OCO2`: the EC50 is > 100 µM (inactive).

On to `COc1cc(OC)cc(C(=O)NNC(=O)c2nn(C)c(=O)c3ccccc23)c1`, for which the 50% effective concentration (EC50) was 11.8 µM.

As for `COc1cc(OC)c(OC)cc1/C=N/NC(=O)C(=O)N/N=C/c1cc(OC)c(OC)cc1OC`, the EC50 is > 100 µM (inactive).

As to `Cc1cc(C(=O)NN=Cc2cc(Cl)cc([N+](=O)[O-])c2O)n[nH]1`, the half-maximal effective concentration (EC50) is 13.6 µM.

Turning to `O=C(N/N=C/c1ccc(O)cc1)C(=O)N/N=C/c1ccc(O)cc1`, the EC50 was 43.9 µM.

Turning to `COc1ccc(OC)c(/C=N/NC(=O)C(=O)N/N=C/c2cc(OC)ccc2OC)c1`, the EC50 was 90.7 µM.

`CC(=NNC(=O)C(=O)NN=C(C)c1cccc(O)c1)c1cccc(O)c1`: the 50% effective concentration (EC50) is 84.6 µM.

As to `COc1cccc(C=NNC(=O)c2cc(-c3cccn3C)n[nH]2)c1O`, the concentration for a half-maximal effect (EC50) was 8.6 µM.

Regarding `COc1ccc(-c2csc(Nc3cccc4ccccc34)n2)cc1F`, the EC50 is > 100 µM (inactive).

For `CC1C(=O)NN=C1C(=O)NN=Cc1ccc(O)cc1O` (stereo unspecified), the EC50 is 10.7 µM.

For `Cc1cc(C(=O)NN=Cc2cccc([N+](=O)[O-])c2O)n[nH]1`, the half-maximal effective concentration (EC50) is 14.6 µM.

As for `COc1cccc(C=NNC(=O)C2=NNC(=O)C2C)c1O` (stereo unspecified), the EC50 is 8.22 µM.

For `O=C(N/N=C/c1ccccc1O)c1n[nH]c2c1CCC2`, the EC50 is 8.25 µM.

For `Cc1cc(C(=O)N/N=C/c2cc(Br)ccc2O)n[nH]1`, the EC50 was 9.33 µM.

For the compound `COC(=O)c1ccc(/C=N/NC(=O)C(=O)N/N=C/c2ccc(C(=O)OC)cc2)cc1`, the EC50 was > 100 µM (inactive).

On to `O=C(NN=Cc1c(O)ccc2ccccc12)c1[nH]ncc1Br`, for which the concentration giving a half-maximal response (EC50) was 9.64 µM.

For `C/C(=N\NC(=O)c1[nH]nc2c1CCc1ccccc1-2)c1ccccc1O`, the 50% effective concentration (EC50) is 8.62 µM.

Take `O=C(N/N=C/c1cc(Br)ccc1O)c1cc(C2CC2)[nH]n1`: the EC50 was 11.3 µM.

For `Cc1ccc(-c2cc(C(=O)NN=Cc3ccccc3O)n[nH]2)o1`, the half-maximal effective concentration (EC50) was 6.19 µM.

In the case of `CC(C)C(=O)NC(=S)Nc1ccccc1C(=O)Nc1ccccc1`, the EC50 is 8.68 µM.

In the case of `COc1cccc(C=NNC(=O)C(=O)NN=Cc2cccc(OC)c2O)c1O`, the concentration for a half-maximal effect (EC50) is 9.12 µM.

As for `O=C(NC(=S)NNC(=O)c1ccccc1O)c1ccc(F)cc1`, the 50% effective concentration (EC50) was 9.41 µM.

For the compound `COc1cc(/C=N/NC(=O)C(=O)N/N=C/c2ccc(O)c(OC)c2)ccc1O`, the half-maximal effective concentration (EC50) is 27.9 µM.

As for `CCOc1cc(/C=N/NC(=O)C(=O)N/N=C/c2ccc(O)c(OCC)c2)ccc1O`, the EC50 is > 100 µM (inactive).

As for `CC(=O)Nc1cccc(C(=O)NNC(=O)c2n[nH]c(=O)c3ccccc23)c1`, the concentration for a half-maximal effect (EC50) is 9.05 µM.

As to `O=C(N/N=C/c1c(O)ccc2ccccc12)c1cc(-c2cccs2)[nH]n1`, the concentration giving a half-maximal response (EC50) was 11.1 µM.

Regarding `O=C(NNC(=S)NC(=O)c1ccccc1[N+](=O)[O-])c1ccccc1O`, the EC50 is 15.3 µM.

Turning to `O=C(CCN1C(=O)/C(=C/c2ccccc2Cl)SC1=S)NNC(=O)c1ccccc1O`, the 50% effective concentration (EC50) is 25.5 µM.

As to `C/C(=N\NC(=O)c1cc(C)[nH]n1)c1ccc2ccccc2c1O`, the EC50 is 6.59 µM.

For `CCOc1cccc(C=NNC(=O)c2cc(C3CC3)[nH]n2)c1O`, the 50% effective concentration (EC50) was 7.63 µM.

As for `CC(C)Oc1ccccc1/C=N/NC(=O)C(=O)N/N=C/c1ccccc1OC(C)C`, the EC50 was 36.4 µM.

As to `OC(c1nc2ccc(F)cc2[nH]1)C(O)c1nc2ccc(F)cc2[nH]1` (stereo unspecified), the concentration giving a half-maximal response (EC50) is 6.78 µM.

Turning to `O=C(N/N=C\c1cccc(O)c1)C(=O)N/N=C/c1cccc(O)c1`, the EC50 was 45 µM.

`COc1cccc(C=NNC(=O)c2[nH]nc3c2CCc2ccccc2-3)c1O`: the EC50 was 9.65 µM.

As to `CCCCOc1ccc(/C=N/NC(=O)C(=O)N/N=C/c2ccc(OCCCC)cc2)cc1`, the EC50 is > 100 µM (inactive).

Regarding `O=C(N/N=C/c1ccccc1C(=O)O)C(=O)N/N=C/c1ccccc1C(=O)O`, the EC50 was 39.3 µM.
